Measurements from patent US20150258059A1, “ANTIMICROBIAL AND RADIOPROTECTIVE COMPOUNDS” (BioDiem, Ltd, priority 2001, published 2015).
Converted amounts (≈) assume the structure as drawn. Read-outs that look alike come from different tables or passages of the source. Marks after values point to notes of the source that are not given here.

How the values were obtained:
[1] = tested on: Rhodotorula rubra; test: microbe, parasite or virus in culture; type: cell-based; conditions: for MIC: Rhodotorula
[2] = tested on: Salmonella paratyphi M-16469; test: Agar diffusion assay; type: cell-based
[3] = tested on: Shigella flexneri M-2A6907; test: Sensitivity of strains: suppression of growth; type: cell-based; conditions: Compound (1) 1.0%; antibiotics disc method
[4] = tested on: Salmonella typhimurium; test: NCCLS broth microdilution MIC/MBC; type: cell-based
[5] = tested on: Paecilomyces variotii; test: M38-P microdilution MIC/MFC; type: cell-based; conditions: Table 16, 48 h, 35° C.
[6] = tested on: Enterococcus faecalis; test: Rate of kill, viable counts; conditions: 512 μg/mL; at 9 h
[7] = tested on: Proteus mirabilis; test: NCCLS broth microdilution MIC/MBC; type: cell-based; conditions: for MIC: Proteus mirabilis
[8] = tested on: C. guillermondii RMIT 176; test: M38-P microdilution MIC/MFC; type: cell-based; conditions: Table 16, 24 h, 35° C.
[9] = tested on: Salmonella typhimurium M-727; test: Sensitivity of strains: suppression of growth; type: cell-based; conditions: Compound (1) 1.0%; antibiotics disc method
[10] = tested on: Salmonella typhimurium museum strain 727; test: Impregnated agar serial double dilutions; conditions: meat peptone agar
[11] = tested on: S. aureus; test: Antibacterial activity in the presence of blood, macrodilution; type: cell-based
[12] = tested on: Candida albicans; test: microbe, parasite or virus in culture; type: cell-based; conditions: for MIC: Candida albicans
[13] = tested on: Staphylococcus epidermidis BK-30; test: Sensitivity of strains: suppression of growth; type: cell-based; conditions: Compound (1) 1.0%; antibiotics disc method
[14] = tested on: Trichophyton rubrum; test: NCCLS broth macro-dilution MIC/MFC (RPMI); type: cell-based; conditions: Table 10, 7 day, 30° C.
[15] = tested on: Rhodotorula rubra; test: NCCLS broth macro-dilution MIC/MFC (RPMI); type: cell-based; conditions: Table 10, 4 day, 30° C.
[16] = tested on: Candida albicans; test: Rate of kill, viable counts
[17] = tested on: Aspergillus fumigatus; test: M38-P microdilution MIC/MFC; type: cell-based; conditions: Table 16, 48 h, 35° C.
[18] = tested on: Corynebacterium B-670; test: Agar diffusion assay; type: cell-based
[19] = tested on: Torula histolytica (Cryptococcus); test: Sensitivity of pathogenic fungi; type: cell-based; conditions: Inoculation 10^5
[20] = tested on: B. subtilis; test: Antibacterial activity in the presence of blood, macrodilution; type: cell-based; conditions: for MIC: Bacillus subtilis
[21] = tested on: Campylobacter jejuni RMIT FF3; test: NCCLS broth microdilution MIC/MBC; type: cell-based; conditions: Table 9, 48 h
[22] = tested on: Acinetobacter B-681; test: Agar diffusion assay
[23] = tested on: Staphylococcus aureus M-209; test: Sensitivity of strains: suppression of growth; type: cell-based; conditions: Compound (1) 1.0%; antibiotics disc method
[24] = tested on: E. faecalis-clinical isolate 1; test: microbe, parasite or virus in culture; type: cell-based
[25] = tested on: six bacterial test cultures; type: cell-based
[26] = tested on: clinical isolate of Trichomonas vaginalis; test: microbe, parasite or virus in culture; type: cell-based
[27] = tested on: Rhizopus stolonifer; test: microbe, parasite or virus in culture; type: cell-based; conditions: for MIC: Rhizopus stolonifer
[28] = tested on: Enterobacter aerogenes B-687; test: Sensitivity of strains: suppression of growth; type: cell-based; conditions: Compound (1) 1.0%; antibiotics disc method
[29] = tested on: Salmonella typhimurium; test: Agar plug diffusion, zone of retardation; conditions: plug impregnated at 0.5%
[30] = tested on: Proteus vulgaris RMIT; test: NCCLS broth microdilution MIC/MBC; type: cell-based; conditions: for MIC: Proteus vulgaris
[31] = tested on: Candida albicans B-45; test: Sensitivity of pathogenic fungi; type: cell-based; conditions: Inoculation 5 × 10^4
[32] = Table 20, […], after 12 weeks continuous exposure, read-out: MIC Final
[33] = Table 20, […], parent strain, read-out: MIC Initial
[34] = before exposure, MHB, read-out: Standard MIC Initial

With `C/C(=C\c1ccc2c(c1)OCO2)[N+](=O)[O-]` [Compound (1)] the MIC [1, 32] was 16 µg/mL (≈ 77.2 µM), the MIC [1, 33] was 8 µg/mL (≈ 38.6 µM) and the MIC [1, 34] was 8 µg/mL (≈ 38.6 µM). The “7-Day MIC Range” value ([1]; to Wk 5) was 8-32 to Wk 5 μg/mL, the “Diameter of zone of Growth inhibition” value ([2]; Concentration in disc 0.1%) was 28# mm and the “Diameter of zone of Growth inhibition” value ([2]; Concentration in disc 1.0%) was 30# mm. For the same compound, the “Diameter of zone of Growth inhibition” value ([2]; Concentration in disc 2.0%) was 36# mm, the “Suppression of Growth (+/−)” value [3] was “+” and the MIC ([4]; Salmonella enterica, TYPHIMURIUM, 24 h) was 256 µg/mL (≈ 1240 µM). It also gave an MMC ([4]; Table 9, 35° C., 24 hours) greater than 512 µg/mL, an MIC ([5]; Paecilomyces variotii, read-out: MIC) of 1 µg/mL (≈ 4.83 µM) and an MMC [5] of 2 µg/mL. For the same compound, the “Log reduction in viable count” value [6] was 0.6 at 9 h, the MIC [7] was 256 µg/mL (≈ 1240 µM) and the MIC ([7]; 24 h) was 256 µg/mL (≈ 1240 µM). It also gave an MMC ([7]; Table 9, 35° C., 24 hours) greater than 512 µg/mL, an MMC ([7]; Table 17, 2 or 3 replicates) greater than 512 µg/mL and an MMC [8] of 2 µg/mL. For the same compound, the MIC ([8]; read-out: MIC) was 2 µg/mL (≈ 9.65 µM), the “Suppression of Growth (+/−)” value [9] was “+” and the “Minimal % Compound (1) giving complete inhibition of test culture” value [10] was 0.5%. The MIC ([11]; 5% blood) was 16 µg/mL, the MMC ([11]; 5% blood) was 256 µg/mL and the MIC ([11]; 10% plasma) was 16 µg/mL. For the same compound, the MMC ([11]; 10% plasma) was 256 µg/mL, the MIC ([11]; Staphylococcus aureus) was 16 µg/mL and the MIC ([12]; after 12 weeks continuous exposure, read-out: Standard MIC Final) was 4 µg/mL (≈ 19.3 µM). For the same compound, the MIC [12, 34] was 4 µg/mL (≈ 19.3 µM), the “7-Day MIC Range” value ([12]; Range to Week 12, No Rising Trend) was 16 to 64 µg/mL and the “Suppression of Growth (+/−)” value [13] was “+”. The MMC [14] was 256 µg/mL, the MIC ([14]; Trichophyton rubrum, 168 h) was 1 µg/mL (≈ 4.83 µM) and the MIC ([15]; Rhodotorula, 96 h) was 8 µg/mL (≈ 38.6 µM). The MMC [15] was 8 µg/mL, the “Log reduction in viable count” value ([16]; 128 μg/mL, in 6h) was 2 in 6h and the “Log reduction in viable count” value ([16]; 256 μg/mL, in 4h) was 6 in 4h. The “Log reduction in viable count” value ([16]; 512 μg/mL, at 2 h) was 5.5 at 2 h, the “reduction (kill)” value ([16]; within 2 hrs at 512 μg/mL) was greater than 99.999% and the “reduction (kill)” value ([16]; within 4 hours at 256 μg/mL) was greater than 99.999%. For the same compound, the MIC ([17]; Aspergillus fumigatus) was 8 µg/mL (≈ 38.6 µM), the MMC [17] was 32 µg/mL and the “Diameter of zone of Growth inhibition” value ([18]; Concentration in disc 0.1%) was 31# mm. The “Diameter of zone of Growth inhibition” value ([18]; Concentration in disc 1.0%) was 35# mm, the “Diameter of zone of Growth inhibition” value ([18]; Concentration in disc 2.0%) was 40# mm and the “Number of microbes: Growth” value ([19]; 0.1%) was 0. For the same compound, the “Number of microbes: Retardation” value ([19]; 0.1%) was 10^5, the “Number of microbes: Growth” value ([19]; 0.5%) was 0 and the “Number of microbes: Retardation” value ([19]; 0.5%) was 10^5. The “Number of microbes: Growth” value ([19]; 2.0%) was 0, the “Number of microbes: Retardation” value ([19]; 2.0%) was 10^5 and the MMC ([20]; 5% blood) was 16 µg/mL. For the same compound, the MMC ([20]; 10% plasma) was 8 µg/mL, the MIC ([20]; 5% blood) was 8 µg/mL and the MIC ([20]; 10% plasma) was 8 µg/mL. For the same compound, the MIC ([20]; — (no plasma or blood)) was 16 µg/mL, the MIC ([21]; Campylobacter jejuni, RMITFF3) was 2 µg/mL (≈ 9.65 µM) and the MMC [21] was 2 µg/mL. The “Diameter of zone of Growth inhibition” value ([22]; Concentration in disc 0.1%) was 32# mm, the “Diameter of zone of Growth inhibition” value ([22]; Concentration in disc 1.0%) was 35# mm and the “Diameter of zone of Growth inhibition” value ([22]; Concentration in disc 2.0%) was 38# mm. The “Suppression of Growth (+/−)” value [23] was “+”, the MMC [24] was 32 µg/mL and the MMC ([24]; 35° C., 24 hours) was 32 µg/mL. For the same compound, the MIC ([24]; Enterococcus faecalis, 35° C., 24 hours) was 32 µg/mL (≈ 154 µM), the “Average zone of retardation” value [25] was 5.17 and the MMC [26] was 4 µg/mL. For the same compound, the MIC ([26]; Trichomonas vaginalis, 24 h) was 4 µg/mL (≈ 19.3 µM), the MIC [27, 32] was 16 µg/mL (≈ 77.2 µM) and the MIC [27, 33] was 4 µg/mL (≈ 19.3 µM). The MIC [27, 34] was 4 µg/mL (≈ 19.3 µM), the “7-Day MIC Range” value ([27]; to Wk 5) was 4-32 to Wk 5 μg/mL and the “Suppression of Growth (+/−)” value [28] was “+”. The “Size of zone of retardation of the growth” value [29] was 7, the MIC [30] was 128 µg/mL (≈ 618 µM) and the MIC ([30]; 24 h) was 128 µg/mL (≈ 618 µM). The MMC ([30]; Table 9, 35° C., 24 hours) was 256 µg/mL, the MMC ([30]; Table 17, 2 or 3 replicates) was 128 µg/mL and the “Number of microbes: Growth” value ([31]; 0.1%) was 0. For the same compound, the “Number of microbes: Retardation” value ([31]; 0.1%) was 5 × 10^6, the “Number of microbes: Growth” value ([31]; 0.5%) was 0 and the “Number of microbes: Retardation” value ([31]; 0.5%) was 5 × 10^6. For the same compound, the “Number of microbes: Growth” value ([31]; 2.0%) was 0 and the “Number of microbes: Retardation” value ([31]; 2.0%) was 5 × 10^4.
